Values quoted from earlier work, collected in US6399819B1, “Process for purifying creatine” (BASF Aktiengesellschaft, priority 1999, dated 2002).

Settings: recrystallization from water

Structure (SMILES): CN(CC(=O)O)C(=N)N [creatine]
- temperature above which decomposition of creatine to creatinine and N-methylhydantoin increases to a level no longer acceptable: about 80 °C
